# In patent US20090305955A1, “Cyclopeptide with Anti-Cancer Activity Derived from Collagen Type IV” (priority 2006, published 2009):
# Where a SMILES comes first, the peptide text is derived from it.
# Assays:
# PAI-1 = assay: Western blot of PAI-1 secretion, UACC-903 cells; type: cell-based, human; details: cyclopeptide 5 to 20 μM
# Experimental: FIG. 15: Effect of YSNSG (SEQ ID NO: 3) cyclopeptide on secretion of PAI-1 (plasminogen activator inhibitor-1). The secretion of PAI-1 was analyzed by Western Blot (A) in a medium conditioned by UACC-903 cells control in the absence of peptide (negative control, white bar), in cells treated with linear heptapeptide CNYYSNS (SEQ ID NO: 5) (20 μM) (positive control, black bar) or treated with YSNSG (SEQ ID NO: 3) cyclopeptide at a concentration from 5 μM to 20 μM (grey bars). The conditioned medium was recovered, concentrated and analyzed as described in the methods.
# (§1) The samples underwent 10% polyacrylamide gel electrophoresis in the presence of 0.1% SDS then were transferred onto Immobilon-P membranes (Millipore, St Quentin en Yvelines, France). The membranes were saturated with 5% freeze dried skimmed milk, Tween 20 0.1% in a 50 mM Tris-HCl, 150 mM NaCl buffer, pH 7.5 (TBS) for 2 hours at ambient temperature. The membranes were then incubated overnight at 4° C. with anti-MMP-14, anti-PAI-1 and anti-u-PAR antibodies then incubated for one hour at ambient temperature with a secondary antibody (anti-IgG) conjugated with peroxidase. The immune complexes were visualized with an ECL chemoluminescence detection kit.
# MT1-MMP = assay: Western blot of proMMP-14 / MMP-14, HUVEC membrane extracts; type: cell-based, human; details: 20 μM
# Experimental: FIG. 19: Effect of YSNSG (SEQ ID NO: 3) cyclopeptide on expression and activation of MMP-14 by HUVEC cells. The expression of proMMP-14 and MMP-14 was studied by Western blot (A). The HUVEC cells were cultivated in the absence (control) or in the presence of 20 μM of YSNSG (SEQ ID NO: 3) cyclopeptide and the corresponding membrane extracts were analyzed. Quantification was carried out using Bio 1D software (B);
# as §1
smiles,measurement,setting,value
"NC(=O)CC1NC(=O)C(CO)NC(=O)C(Cc2ccc(O)cc2)NC(=O)CNC(=O)C(CO)NC1=O (centres unmarked) [cyclopeptide YSNSG, cyclopeptide YSNSG (SEQ ID NO: 3)] (cyclo(GYSNS); configuration not given here)",secretion of PAI-1,PAI-1,large increase
same,reduction in the activation of MT1-MMP,MT1-MMP,56%
